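Growth conditions: 96-well plates. Treatment: test compound, 48 hours, 5 concentrations. Analysis: linear interpolation between bracketing concentrations; unreached endpoints set to highest concentration. GI50 = concentration required for 50% inhibition of growth.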 Activity calls are given as the source filed them. No stated cut-off is given here; in the data, active = GI50 up to about 1.1 µM and inactive = higher.
Columns and labels:
Assay in all cases: inhibition of tumour cell growth, NCI panel, 48 h
[1] = test system: SK-MEL-5
[2] = test system: HCC 2998
[3] = test system: OVCAR-5
[4] = test system: A549
[5] = test system: UACC-257
[6] = test system: 786-0
[7] = test system: UO-31
[8] = test system: PC-3
[9] = test system: HL-60
[10] = test system: U-251
[11] = test system: HT-29
[12] = test system: SN12C
[13] = test system: NCI-H226
[14] = test system: IGROV-1
[15] = test system: MCF7
[16] = test system: SK-OV-3
[17] = test system: Malme-3M
[18] = test system: SF-295
[19] = test system: OVCAR-4
[20] = test system: COLO 205

SMILES | GI50 [1] | GI50 [2] | GI50 [3] | GI50 [4] | GI50 [5] | GI50 [6] | GI50 [7] | GI50 [8] | GI50 [9] | GI50 [10] | GI50 [11] | GI50 [12] | GI50 [13] | GI50 [14] | GI50 [15] | GI50 [16] | GI50 [17] | GI50 [18] | GI50 [19] | GI50 [20]
CCN(CC)c1ccc(C2NC(=O)c3ccccc3N2)cc1 (stereo not given) | 1.15 µM (inactive) | 2.19 µM (inactive) | > 22 µM (inactive) | 3.27 µM (inactive) | > 100 µM (inactive) | 2.99 µM (inactive) | > 24.5 µM (inactive) | 3.32 µM (inactive) | 0.522 µM (active) | 4.34 µM (inactive) | 2.31 µM (inactive) | 9.98 µM (inactive) | 2.98 µM (inactive) | 5.24 µM (inactive) | 3.73 µM (inactive) | 3.74 µM (inactive) | > 28.4 µM (inactive) | 3.01 µM (inactive) | > 100 µM (inactive) | 1.63 µM (inactive)
CCOC(=O)C1=C(C(=O)OCC)SC2(S1)C(C(=O)OCC)=C(C(=O)OCC)Sc1c2ssc1=O | 2.03 µM (inactive) | 2.42 µM (inactive) | 4.7 µM (inactive) | 2.26 µM (inactive) | 1.6 µM (inactive) | 0.811 µM (active) | 1.54 µM (inactive) | 1.44 µM (inactive) | 0.279 µM (active) | 1.93 µM (inactive) | 1.76 µM (inactive) | 0.918 µM (active) | 22.1 µM (inactive) | 0.764 µM (active) | 1.74 µM (inactive) | 6.12 µM (inactive) | 1.98 µM (inactive) | 15 µM (inactive) | 1.27 µM (inactive) | 1.84 µM (inactive)
COc1ccc(Cl)cc1NC(=O)O/N=C(\Cl)C(C)C | 5.22 µM (inactive) | 16.4 µM (inactive) | 18.4 µM (inactive) | 18.8 µM (inactive) | 17.1 µM (inactive) | 13 µM (inactive) | 13.8 µM (inactive) | 17.4 µM (inactive) | 2.16 µM (inactive) | 26.4 µM (inactive) | 16.4 µM (inactive) | 8.49 µM (inactive) | 12.7 µM (inactive) | 12.2 µM (inactive) | 6.71 µM (inactive) | 18.7 µM (inactive) | 1.94 µM (inactive) | 17.9 µM (inactive) | 17.2 µM (inactive) | 2.19 µM (inactive)

Reference: ChEMBL document CHEMBL1201862, “PubChem BioAssay data set” (2004)
